{"source": "patent US12121540B2", "about": "“CBL inhibitors and compositions for use in adoptive cell therapy” (Nurix Therapeutics, Inc., priority 2019, dated 2024)", "test_system": "E.G7-OVA tumors", "assay": "Oral Cbl inhibitor treatment with expanded OT-1 cells in tumor-bearing mice", "assay_type": "in vivo, mouse", "experimental": "Tumor volume was measured roughly every five days after cell transfer.\nOT-1 cells were assessed in mouse blood 5 days and 20 days after transfer."}
{"smiles": "C[C@H]1CCCN(Cc2cc3c(c(C(F)(F)F)c2)CN(c2cccc([C@]4(c5nncn5C)C[C@@H](C)C4)c2)C3=O)C1", "note": "[compound 116]", "values": [{"measurement": "Anti-tumor efficacy (tumor volume) of OT-1 cells", "setting": "oral administration, OT-1 cells expanded with compound 103 plus IL-2, FIG. 18", "value": "enhanced the anti-tumor efficacy"}, {"measurement": "Survival of mice", "setting": "oral administration, OT-1 cells expanded with compound 103 plus IL-2, FIG. 19", "value": "enhanced survival"}, {"measurement": "Persistence of OT-1 cells in mouse blood", "setting": "oral, OT-1 cells expanded with Cbl inhibitor plus IL-2", "value": "longer persistence"}, {"measurement": "Frequency of OT-1 cells in mouse blood", "setting": "oral, OT-1 cells expanded with Cbl inhibitor plus IL-2, 5 and 20 days after transfer", "value": "increased frequency"}]}
